Read-outs that look alike come from different tables or passages of the source.
Tests used:
[1] = system: SH-SY5Y neuroblastoma cells; test: CCK-8 cell cytotoxicity assay, SH-SY5Y; assay type: cell-based; settings: Homo sapiens, read-out: IC50 (μM) SH-SY5Y
Method: (§1) Cell cytotoxicity was determined by the CCK-8 assay. Four strains of human cells (SH-SY5Y) were seeded in 96-well plates at a density of 3 × 10^3 cells/well under 37 °C and 5% CO2 for 12 h and subsequently treated with the test sample solution (euphorbiasteroid and its metabolites, 10 μL) for 72 h. After treatment, each well with 10 μL CCK-8 reagent was incubated for 1–2 h in the incubator. Afterwards, the optical OD-value was measured at 450 nm through a microplate reader. Three multiple wells were set as parallel experimental groups.
(§2) Euphorbiasteroid and its metabolites were tested for their cytotoxicity on human cell lines SH-SY5Y, LO2, AC-16, and HK-2 by the CCK-8 assay. […] Therefore, considering the high content of euphorbiasteroid in Euphorbiae semen, it was speculated that the metabolites from hydroxylation and hydrolysis might be the potential toxic constituents of Euphorbiae semen.

LO2 cells = test: CCK-8 cell cytotoxicity assay, LO2; assay type: cell-based; settings: Homo sapiens, read-out: IC50 (μM) LO2
Method: as §1, §2

AC-16 cells = test: CCK-8 cell cytotoxicity assay, AC-16; assay type: cell-based; settings: Homo sapiens, read-out: IC50 (μM) AC-16
Method: as §1, §2

[2] = Metabolite detection in rats (plasma, urine, feces) after oral euphorbiasteroid by UPLC-Q/TOF-MS; assay type: in vivo, Sprague-Dawley rats; settings: single oral dose 100 mg/kg euphorbiasteroid
Method: For metabolite separation and detection, chromatographic analyses were performed using a Waters Acquity UPLC I-class system (Waters, Milford, MA, USA), equipped with an auto-sampler, a binary solvent delivery system, an online degasser, and a photodiode array detector. An ACQUITY UPLC® HSS T3 column (2.1 × 150 mm, 1.8 μm, Waters) protected with a HSS T3 VanGuard ™ Pre-Column 3/Pk (2.1 × 5.0 mm, 1.8 μm, Waters) was used. The optimized parameters were set as follows: the mobile phase consisted of eluent A (0.1% formic acid in water, v/v) and eluent B (acetonitrile). The flow rate was 0.3 mL/min. The column and auto-sampler temperatures were maintained at 40 °C and 4 °C, respectively. The gradient elution program was optimized as follows: 0–9 min, 30–70% B; 9–13 min, 70–90% B; 13–17 min, 90–100% B; 17–20 min, 100–100% B.
The mass spectrometry detection was performed on the SYNAPT G2-Si HDMS system, equipped with an electrospray ionization (ESI) source (Waters Corp., Manchester, UK). A positive ion mode was conducted in this analysis. Mass spectrometry conditions were finally set as follows: capillary voltage of 3.0 kV, cone voltage of 40 V, source temperature of 120 °C, and de-solvation temperature of 400 °C. Nitrogen was used as the desolvation and cone gas with a flow rate of 800 and 50 L/h, respectively, and the full-scan mass range was set as m/z 50–1500 Da. In the auto mass spectrometry mode, the collision-induced dissociation energies were set at 0 eV for the precursor ion at the low-energy mode, and the collision-induced dissociation energies were set from 2 to 10 eV for the high-energy mode. Real-time data were calibrated using an external reference (LockSpray™) at a concentration of 0.2 ng/mL with an infusion flow rate of 5 μL/min, generating a reference ion for the positive ion mode (m/z 556.2771) during the UPLC-MS analysis. Data were acquired and processed using MassLynx ™ NT 4.1 software (Waters, Milford, MA, USA).
Male Sprague-Dawley rats (200–220 g) were commercially supplied by Shanghai Sippr-BK Laboratory Animal Co., Ltd. (Shanghai, China) and were housed in a humidity- and temperature-controlled room (50 ± 10% and 22–24 °C) with a 12-h light/dark cycle. The experimental rats were allowed to access food and water ad libitum and acclimatized to the conditions mentioned above for a week, then fasted overnight but with free access to water before the experiments. Euphorbiasteroid was dissolved in soybean oil solution (containing 0.5% ethanol) to form a concentration of 10 mg/mL. A single dose of 100 mg/kg euphorbiasteroid was orally administered to rats and the same concentration of soybean oil solution (containing 0.5% ethanol) was administered as a blank control. All animal procedures were performed in accordance with the Guidelines for Care and Use of Laboratory Animals of Naval Medical University and approved by the Animal Ethics Committee of Naval Medical University.
Blood samples (0.5 mL) were collected from six rats through the orbital sinus before administration (blank sample) and 0.25, 0.5, 1, 2, 4, 6, and 12 h after administration. Plasma samples were prepared by centrifugation at 4000 rpm for 10 min. For urine and feces sampling, 12 rats were divided into an administration group and a blank group, and were placed separately in stainless steel metabolic cages. Urine and feces samples were collected in containers surrounded by ice over 0–6, 6–12, and 12–24 h after drug administration. The mixed urine samples were centrifuged at 4000 rpm for 10 min at 4 °C to obtain the supernatants, and fecal samples were left in a cool and dry place until dry. All the biological samples were frozen at −80 °C before analysis.
An aliquot of 200 µL of plasma and urine samples was put in a 1.5 mL tube, respectively. 800 µL of acetonitrile was added and vortexed for 5 min to extract metabolites. Feces samples (1.0 g) were crushed and then ultrasonically extracted with acetonitrile (10 mL) for 30 min. […]

HK-2 cells = test: CCK-8 cell cytotoxicity assay, HK-2; assay type: cell-based; settings: Homo sapiens, read-out: IC50 (μM) HK-2
Method: as §1, §2

[3] = system: human cell lines SH-SY5Y, LO2, AC-16, and HK-2; test: CCK-8 cytotoxicity, summary over four human cell lines; assay type: cell-based; settings: span over SH-SY5Y, LO2, AC-16, HK-2 (and over the named metabolites), read-out: IC50 values against four human cell lines
Method: as §1, §2

[4] = In vitro incubation of euphorbiasteroid with rat liver microsomes, metabolite detection; assay type: in vitro ADME; settings: 37 °C, 1 h, NADPH regenerating system
Method: The microsomal incubation approach was based on previous metabolism studies published by Wintermeyer et al. and Franziska et al.. A 200 μL incubation system containing 10 μL of solution A, 2 μL of solution B, 5 μL of rat liver microsomes (20 mg/mL) and 182 μL 0.1 M PBS buffer (pH = 7.4) was constructed. The above solution was heated in a 37 °C water bath, then 1 μL of euphorbiasteroid (dissolved in DMSO solution, 10 mM) was used to start the reaction, and the mixture was then incubated at 37 °C for 1 h. The reactions were terminated by the addition of 200 μL of ice-cold acetonitrile. The mixture was then centrifuged at 13,000 rpm for 10 min, and a 2-μL aliquot of the supernatant was directly injected into the UPLC-Q-TOF-MS system.
(§3) First, the metabolites of euphorbiasteroid in rats (plasma, urine, and feces), RLMs, and C. elegans culture medium were predicted by setting the prototype components and potential biological metabolic reactions in UNIFI 4.1 software. Then, the predicted metabolites in each sample were further compared according to the characteristic mass spectrum behaviors (including parent ions, internal cleavage in the ion source, and characteristic fragment ions of each metabolite) and retention times.

[5] = system: Cunninghamella elegans bio-110930; test: Microbial transformation of euphorbiasteroid, metabolite detection; settings: C. elegans bio-110930 culture with euphorbiasteroid
Method: The biotransformation process was conducted at two scales: preliminary screening and preparative. Preliminary screening scale biotransformation of euphorbiasteroid was carried out in 250 mL Erlenmeyer flasks containing 100 mL of liquid medium. The flasks were placed on a rotary shaker (160 rpm, 28 °C). A standard two-stage fermentation protocol was employed in all experiments. After 2 days of pre-culture, the substrates of 5 mg (dissolved in 0.5 mL of acetone) were added into each flask. Taking 1 mL samples on days 0, 2, 4, 7, 10, and 14, samples were centrifuged and the degree of transformation was compared to controls on TLC and HPLC, and a 2-μL aliquot of the supernatant was directly injected into the UPLC-Q-TOF-MS system. Culture controls consisted of sterile medium, in which microorganisms were grown under identical conditions without substrate. Substrate controls were composed of sterile medium and the same amount of substrate incubated under the same conditions without microorganisms.
as §3

| Structure (SMILES) | IC50 ([1]; CCK-8, 72 h treatment) [µM] | IC50 (LO2 cells; L02, CCK-8, 72 h treatment) [µM] | IC50 (AC-16 cells; CCK-8, 72 h treatment) [µM] | Distribution Rat Faeces (metabolite detected) [2] | Distribution Rat Plasma (metabolite detected) [2] | Distribution Rat Urine (metabolite detected) [2] | IC50 (HK-2 cells; HK-2, CCK-8, 72 h treatment) [µM] | IC50 [3] [µM] | Distribution RLMs (metabolite detected) [4] | IC50 ([1]; 72 h) [µM] | IC50 (LO2 cells; L02, 72 h) [µM] | IC50 (AC-16 cells; 72 h) [µM] | Distribution Fungi (metabolite detected) [5] | IC50 (HK-2 cells; HK-2, 72 h) [µM] |
| --- | --- | --- | --- | --- | --- | --- | --- | --- | --- | --- | --- | --- | --- | --- |
| CC1=CC2C(CCC3(CO3)C(O)C3C(O)C(C)CC3(O)C1=O)C2(C)C (centres unmarked) [Compound M24, epoxylathyrol] | 40.7 ± 0.44 | 38.9 ± 0.42 | 21.7 ± 0.24 | √ | √ | √ | 26.5 ± 0.29 | 3.6 to 40.7 | √ |  |  |  |  |  |
| CC(=O)OC1C2C(OC(=O)Cc3ccccc3)C(C)CC2(OC(C)=O)C(=O)C(CO)=CC2C(CCC13CO3)C2(C)C (centres unmarked) [Compound M3, 20-hydroxyl euphorbiasteroid] |  |  |  | √ | √ | √ |  |  | √ | 39.6 ± 0.43 | 37.4 ± 0.41 | 17.9 ± 0.19 | √ | 22.7 ± 0.25 |
| CC(=O)OC1C2C(OC(=O)Cc3ccccc3)C(C)CC2(O)C(=O)C(C)=CC2C(CCC13CO3)C2(C)C (centres unmarked) [Compound M25, 15-deacetyl euphorbiasteroid] |  |  |  | √ | √ | √ |  |  | √ | 33.3 ± 0.36 | 30.1 ± 0.33 | 3.6 ± 0.04 |  | 16.1 ± 0.18 |

From paper PMC9504842, “Comprehensive Metabolic Profiling of Euphorbiasteroid in Rats by Integrating UPLC-Q/TOF-MS and NMR as Well as Microbial Biotransformation” (Metabolites, 2022)
